The values that follow come from patent publication US11015179B2, “Peptide having anti-viral effect and composition containing same” (priority 2015, dated 2021).

The test system of assay [1] is HIV-1. Conditions: characteristics of control anti-HIV drugs stated as well known; cited from earlier work.
Assay [2] concerns HCV. In words: Quantitative PCR of HCV NS2 transcript in JFH-1 cells. Conditions: 48 hours, vs vehicle, PEP1 until 10 μM, NAC 20 mM, PDTC 100 μM, vitamin E 10 μM. The format is cell-based, Hepatitis C virus (HCV2a JFH-1). On the procedure: A cell line used in the example relating to the HCV antiviral effect of PEP1 according to an aspect of the present invention, such as, human hepatocellular carcinoma (Huh7.5) was purchased from the American Type Culture Collection (ATCC; Manassas, Va., USA), and a JFH-1 cell line was constructed using HCV2a JFH-1 clones provided from Dr. Wakita (Tokyo Metropolitan Institute for Neuroscience, Tokyo, Japan) in the Huh7.5 cell line. All of the cell lines were cultured in a Dulbecco's modified Eagle's medium (DMEM) containing 10% FBS and 1% antibiotics.
A HCV RNA level was detected though quantitative PCR using primers for a NS2 gene. To measure the level of HCV RNA in the supernatant of cell culture, RNA was extracted from 100 μl of the cell culture using a QIAamp Viral RNA Mini kit (Qiagen). The extracted RNA was used in cDNA synthesis using a transcript first strand cDNA synthesis supermix kit (Roche Applied Science). PCR was carried out using a 1×SYBR Green mix (Qiagen). For real-time PCR, an NS2 forward primer 5′-[…]-3′ (SEQ ID NO: 3) and a reverse primer 5′-[…]-3′ (SEQ ID NO: 4) were purchased from Bioneer Co. For quantitative PCR, a 7900HT Fast real-time PCR system (Applied Biosystems, Foster City, Calif., USA) was used.
According to the methods described in the experiments and the analysis methods, to investigate whether PEP1 inhibits the replication of one HCV RNA such as NS2, the transcript of NS2 was measured.

The subject of assay [3] is JFH-1 cells. In words: Intracellular ROS production (DCF-DA) in JFH-1 cells. It is filed as cell-based, human. Conditions: for ROS production: 2 hours, PEP1 0.001-10 μM, NAC, PDTC 100 μM, vitamin E 10 μM, vs vehicle. On the procedure:
One day after 5×10^4 (cells/well) cells of the JFH-1 cell line were seeded into a 24-well plate, intracellular ROS production was measured according to various experimental materials. Measurement of intracellular activity was carried out by staining the cells with dichlorodihydrofluoresein diacetate (DCF-DA; Invitrogen), and fluorescence measurement of ROS production was carried out at […] using Infinte M2000 Tecan (Tecan Trading AG, Switzerland). All fluorescent units were expressed as arbitrary units, and as a positive control group, hydrogen peroxide (H2O2, 2 mM) was used. ROS measurement for the Huh7.5 cells was also carried out by the same procedure as described above.
As a control group, a human HCC cell line, and Huh7.5 and JFH-1 cell lines were treated with known representative antioxidants such as NAC (2 Mm), PDTC (100 μM), and vitamin E (10 μM) and then compared.
The inventors inhibited the interaction with HSP90 by two methods: a use of antibodies against […] and antibodies against HSP90 or a use of an inhibitor occupying a catalytic position (ATP-binding pocket in the N-terminal of HSP90).

Assay [4] deals with HSP90 (extracellular HSP90, eHSP90). Description: Extracellular HSP90 detection by ELISA in JFH-1 culture supernatant. It is filed as cell-based, human. To be noted: JFH-1 cells, PDTC 100 μM, 2 hours, vs control. On the procedure: The Huh7.5 and JFH-1 cell lines were treated with an oxidant (H2O2, 2 mM) and an antioxidant, PDTC (100 μM), for two hours. HSP90 (extracellular HSP90, eHSP90) in the supernatant of a culture was detected by ELISA (R&D Systems, Minneapolis, Minn., USA) according to the manufacturer's instructions.

Assay [5] concerns HIV-1 Tat transactivation. Description: HIV-LTR-luciferase assay in 1G5 cells transfected with Tat plasmids. It is filed as cell-based. To be noted: four days. On the procedure:
An HIV-1 transactivation protein (Tat) is a regulatory protein dramatically enhancing HIV-1 transcription through the interaction with the tat-transcriptional active region (TAR). […] In the present invention, as a Jurkat-derived cell line, 1G5 containing a stably-inserted HIV-LTR-luciferase construct was used.
The 1G5 cells were transfected with Tat plasmids. […] Four days after the infection, the transactivation of HIV-LTR was analyzed through a luciferase assay.

Assay [6] relates to HIV-1. To be noted: ACH-2 cells, RT-qPCR, stepwise increasing concentrations. (In general: Real-time PCR tracks product formation cycle by cycle.)
Protocol: That is, ACH-2 cells, that is, cells latently-infected with HIV-1, were stimulated with PMA (50 nM) to induce reactivation of HIV-1 for 1 hour. […] A production level of viral particles in the supernatant was determined by p24 ELISA.
The levels of viral genomic RNA of the produced viral particles were determined by RT-qPCR.
The test system of assay [7] is HIV-1. To be noted: MT-4 cells. On the procedure:
The MT-4 cells (4×10^5 cells) were infected with HIV-1 (4×10^5 50% cell culture infective dose (CCID50)) for one hour. […] After two days of incubation, images of the MT-4 cells expressing eGFP were obtained using a fluorescence microscope before harvesting the cells. To remove cell debris, the collected supernatant was subjected to centrifugation at 13,000 rpm for 3 minutes, and to measure an extracellular viral amount, p24 ELISA or RNA extraction was performed for a reverse transcription-quantitative polymerase chain reaction (RT-qPCR). Meanwhile, the cell pellets were washed with D-PBS twice, and used for a cell viability assay. […] HIV-1 replication was analyzed by p24 ELISA, and eGFP was monitored using a fluorescent microscope.
To measure HIV-1 virus titers, HIV-1 p24 antigen capture ELISA (p24 ELISA, ABL) and RT-qPCT assay were performed according to the manufacturer's instructions. HIV-1 RNA genomes were purified from the cell culture supernatants and pellets using a QIAamp Ultrasens Virus kit (Qiagen, Hilden, Germany) according to the manufacturer's instructions. The HIV-1 RNA levels were quantified by RT-qPCR using a primer pair specific to gag of HIV-1. Glyceraldehyde phosphate dehydrogenase (GAPDH) was used as a reference gene for normalization. […]

The subject of assay [8] is HIV-1-infected MT-4 cells. Description: Cell protective effect from HIV-1-induced cell death in MT-4 cells. Conditions: 5 days. The format is cell-based, human. On the procedure:
MT-4, 1G5 or ACH-2 cells were seeded in a 96-well microplate at a density of 1×10^4 cells/well, and incubated with increasing concentrations of PEP1 for 5 days. Cell viability was determined by colorimetry using a CellTiter96 Aqueous One Solution assay kit (Promega, Wis.) according to the manufacturer's instructions. To assess the cell protective effect of PEP1 from HIV-1-induced cell death, MT-4 cells (1×10^4) were infected with the HIV-1 virus (4×10^5 CCID50) for 5 days with or without PEP1, and subjected to a cell viability assay.
It has been known that apoptosis of HIV-infected cells occurs by an intracellular cell death mechanism.

For assay [9], the system named is NF-κB. In words: NF-κB dual-luciferase assay in MT-4 cells. The format is cell-based, human. Conditions: 24 hours. The source says: NF-κB triggers HIV transcription by interacting with an NF-κB-binding site in HIV-LTR, and increases the activation of TAT-mediated LTR […]. In addition, Tat can directly activate NF-κB. Recently, there have been studies showing that eHSP90 can regulate various intracellular signaling pathways, including the NF-κB pathway.

Assay [10] concerns p38, JNK and ERK. In words: Immunoblotting of MAPK signaling factors in JFH-1 cells. The format is cell-based, human. To be noted: 2 hours, vitamin E 10 μM. On the procedure: Proteins were acquired from cells using a lysis solution (Cell Signaling Technology, Danvers, Mass., USA) containing a proteinase inhibitors cocktail (Roche, Basel, Switzerland) and a phosphatase inhibitor (Roche). To remove debris, which remained after cell lysis, the cells were centrifuged for 10 minutes at 4° C. 50 μg of the proteins were analyzed through 12% sodium dodecyl sulfate-polyacrylamide gel electrophoresis (SDS-PAGE), and then transferred to a polyvinylidene difluoride membrane (PVDF; Millipore, Bedford, Mass., USA). The transferred membrane was developed using an ImageQuant™ LAS 4000 mini biomolecular imager (GE Healthcare Bio-Sciences AB, Sweden), after antibodies against HSP90, p38, p-p38 (Thr180/Tyr182), JNK, p-JNK (Thr183/Tyr185), ERK, p-ERK (Thr202/Tyr204), and zinc-copper containing enzyme SOD (CuZn-SOD) and manganese-SOD (Mn-SOD) as superoxide dismutase oxidases (SODs), and GAPDH (all of them were purchased from Cell Signaling Technology and Santa Cruz Biotechnology) were attached to the membrane and then visualized by a SuperSignal West Pico chemiluminescence substrate (Pierce, Rockford, USA). β-actin was used for normalization using a Multi Gauge V 3.0 (Fuji Film, Japan), and quantitative analysis was carried out by densitometry. […]

For the compound `CC(C)c1nc(CN(C)C(=O)N[C@H](C(=O)N[C@@H](Cc2ccccc2)C[C@H](O)[C@H](Cc2ccccc2)NC(=O)OCc2cncs2)C(C)C)cs1` [Ritonavir], in assay [1], the “Time of treatment at which the control drug inhibits HIV proliferation” value is given as “up to 15 hours”.

Consider `CC(=O)N[C@@H](CS)C(=O)O` [NAC, N-acetylcysteine], for which the “NS2 transcription (HCV RNA replication)” value in [2] is recorded as “do not inhibit the NS2 transcription at all”. Besides, in [3], the ROS production result is on record as “induced a decrease in ROS production”.

Regarding `S=C(S)N1CCCC1` [PDTC, pyrolidine dithiocarbamate], the eHSP90 level entry in assay [4] is “produced at a lower level than the control group”. In assay [2], the “NS2 transcription (HCV RNA replication)” value is “do not inhibit the NS2 transcription at all”. In addition, the ROS production entry in assay [3] is “induced a decrease in ROS production”. For the same compound, in [3] (PDTC), the “ROS production in the presence of KNK and 17AAG” value was “inhibits ROS production in the presence of both of KNK and 17AAG”; the “ROS production with HSP70/HSP90 blocking antibodies” value is “inhibits ROS production regardless of blocking of HSP70 and HSP90”.

As for `Cc1cn([C@H]2C[C@H](N=[N+]=[N-])[C@@H](CO)O2)c(=O)[nH]c1=O` [AZT, 3-azido-3-deoxythymidine], in assay [5], the “HIV-LTR luciferase activity activated by ectopic expression of Tat” value was “did not inhibit”. Moreover, the “Viral genomic RNA of produced viral particles after PMA” value in [6] is on record as “did not change the PMA effect”. For the same compound, the “Inhibition of eGFP expression after anti-HSP90 antibodies” value in assay [7] (fluorescence / immunoblotting) was “an effect of AZT was not obtained”. Also, the “Inhibition of HIV-1 production after anti-HSP90 neutralization antibodies” value in [7] (p24 ELISA) is given as “no influence”. In assay [8], the Cell protective effect result is given as “considerable cell protective effects in a dose-dependent manner”. In addition, the “NF-κB activity in HIV-1-infected MT-4 cells” value in assay [9] was “medium level of inhibitory effect”. For the same compound, in assay [9] (MT-4 cells), the “Basal NF-κB activity” value was “no significant effect”.

Take `C=CCNC1=C2C[C@@H](C)C[C@H](OC)[C@H](O)[C@@H](C)/C=C(\C)[C@H](OC(N)=O)[C@@H](OC)/C=C\C=C(/C)C(=O)NC(=CC1=O)C2=O` [17AAG, 17-N-Allylamino-17-demethoxy geldanamycin]: the “Change in ROS caused by HSP inhibitor” value in assay [3] (17AAG 1 μM, KNK 10 μM) is on record as “the ROS inhibitory effect was exhibited”.

For the compound vitamin E, the ERK activity result in assay [10] is listed as “increased”. Also, the “NS2 transcription (HCV RNA replication)” value in assay [2] is on record as “do not inhibit the NS2 transcription at all”. Further, the ROS production result in assay [3] is given as “induced a decrease in ROS production”.
